{"source": "paper PMC5207785", "about": "“Arginine and Lysine Transporters Are Essential for Trypanosoma brucei” (PLoS ONE, 2017)", "key": {"TbAAT16-1": {"molecular_target": "T1, TbAAT16-1 (Trypanosoma brucei, UniProt Q381K2)", "T1 construct": "gene Tb11.01.7500; full-length ORF (1389 bp incl. stop) in pDR197, untagged, expressed in S. cerevisiae 22Δ7AA; syntenic TREU927 gene Tb927.11.15840", "T1 sequence (Q381K2 1-462)": "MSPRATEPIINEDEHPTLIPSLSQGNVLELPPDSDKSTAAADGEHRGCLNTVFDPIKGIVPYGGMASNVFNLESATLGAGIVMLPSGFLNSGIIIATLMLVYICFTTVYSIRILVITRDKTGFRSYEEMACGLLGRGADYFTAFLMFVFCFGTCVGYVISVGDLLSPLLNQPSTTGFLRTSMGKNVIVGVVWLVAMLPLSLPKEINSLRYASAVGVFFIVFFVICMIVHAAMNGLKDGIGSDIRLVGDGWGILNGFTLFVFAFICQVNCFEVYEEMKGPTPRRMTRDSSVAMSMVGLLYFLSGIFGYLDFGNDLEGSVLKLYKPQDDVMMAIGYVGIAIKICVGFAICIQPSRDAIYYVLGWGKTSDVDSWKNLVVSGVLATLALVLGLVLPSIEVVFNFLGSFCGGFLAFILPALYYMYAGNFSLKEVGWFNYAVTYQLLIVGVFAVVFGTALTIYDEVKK", "assay": "competition of L-[3H]-lysine uptake in S. cerevisiae […]Δ7AA", "format": "cell-based", "details": "500 µM; 50 μM L-lysine; pH 4.5"}, "TbAAT5-3 [1]": {"molecular_target": "T2, TbAAT5-3 (Trypanosoma brucei, UniProt Q57UX9)", "T2 construct": "gene Tb08.4A8.362; full-length ORF (1377 bp incl. stop) in pDR197, untagged, expressed in S. cerevisiae 21.983c; nt 96 resolved as C (Asp)", "T2 sequence (Q57UX9 1-458)": "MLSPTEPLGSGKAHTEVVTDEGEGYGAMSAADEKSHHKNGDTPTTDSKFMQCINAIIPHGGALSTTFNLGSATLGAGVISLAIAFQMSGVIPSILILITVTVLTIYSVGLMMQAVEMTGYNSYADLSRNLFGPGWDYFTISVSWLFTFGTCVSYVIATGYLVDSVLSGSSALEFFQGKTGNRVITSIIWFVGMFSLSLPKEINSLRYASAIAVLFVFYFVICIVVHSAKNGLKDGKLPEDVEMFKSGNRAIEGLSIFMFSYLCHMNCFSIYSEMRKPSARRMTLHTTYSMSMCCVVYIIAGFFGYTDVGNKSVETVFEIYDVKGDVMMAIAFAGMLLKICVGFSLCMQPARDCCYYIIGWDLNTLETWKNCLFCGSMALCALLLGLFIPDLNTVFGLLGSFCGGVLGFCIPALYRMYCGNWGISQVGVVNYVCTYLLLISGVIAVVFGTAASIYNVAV", "assay": "competition of L-[3H]-arginine uptake in S. cerevisiae […]c", "format": "cell-based", "details": "500 µM, 50 μM L-arginine, pH 6.0"}, "TbAAT5-3 [2]": {"molecular_target": "T2, TbAAT5-3", "assay": "competition of L-[3H]-arginine uptake in S. cerevisiae […]c", "format": "cell-based", "details": "5000 µM; 50 μM L-arginine; pH 6.0"}, "[3]": {"substrate": "N=C(N)NCCC[C@H](N)C(=O)O", "assay": "cells, lysate or membranes", "format": "cell-based, Trypanosoma brucei", "details": "labelled compound, 30 °C, 100 mM glucose, empty-vector background subtracted, pH of this assay not given"}, "[4]": {"substrate": "NCCCC[C@H](N)C(=O)O", "assay": "cells, lysate or membranes", "details": "labelled compound, 30 °C, 100 mM glucose, empty-vector background subtracted, pH of this assay not given"}}}
{"molecule": "NCCCC[C@H](NC(=O)OCC1c2ccccc2-c2ccccc21)C(=O)O", "note": "[Fmoc-Lysine, N-α-(9-fluorenylmethyloxycarbonyl)-L-lysine]", "values": [{"measurement": "L-[^3H]-lysine uptake rate (%) / 10x", "setting": "TbAAT16-1", "value": "57.6 ± 6.9", "unit": "%"}]}
{"molecule": "NCCSC[C@H](N)C(=O)O", "note": "[Thialysine, S-(2-aminoethyl)-L-cysteine]", "values": [{"measurement": "L-[^3H]-lysine uptake rate (%) / 10x", "setting": "TbAAT16-1", "value": "35.3 ± 1.8", "unit": "%"}]}
{"molecule": "N=C(N)NCCC[C@H](N)C(=O)Nc1ccc2ccccc2c1", "note": "[Arginine-β-naphthylamide]", "values": [{"measurement": "L-[^3H]-arginine uptake rate (%) / 10x", "setting": "TbAAT5-3 [1]; unspecific effect of the amphipathic compound not excluded", "value": "69 ± 6.6", "unit": "%"}]}
{"molecule": "NCCCC[C@H](N)C(=O)O", "note": "[L-lysine]", "values": [{"measurement": "L-[^3H]-arginine uptake rate (%) / 100x", "setting": "TbAAT5-3 [2]", "value": "56.5 ± 8.2", "unit": "%"}]}
{"molecule": "N=C(N)NCCCC[C@H](N)C(=O)O", "note": "[Homoarginine]", "values": [{"measurement": "L-[^3H]-arginine uptake rate (%) / 10x", "setting": "TbAAT5-3 [1]", "value": "25.6 ± 4.2", "unit": "%"}]}
{"molecule": "N=C(N)NOCC[C@H](N)C(=O)O", "note": "[Canavanine]", "values": [{"measurement": "L-[^3H]-arginine uptake rate (%) / 10x", "setting": "TbAAT5-3 [1]", "value": "38.5 ± 4.5", "unit": "%"}]}
{"molecule": "COC(=O)[C@@H](N)CCCNC(=N)N", "note": "[Arginine methyl ester]", "values": [{"measurement": "L-[^3H]-arginine uptake rate (%) / 100x", "setting": "TbAAT5-3 [2]", "value": "67.6 ± 10.3", "unit": "%"}]}
{"molecule": "CCOC(=O)[C@@H](N)CCCNC(=N)N", "note": "[Arginine ethyl ester]", "values": [{"measurement": "L-[^3H]-arginine uptake rate (%) / 100x", "setting": "TbAAT5-3 [2]", "value": "72.5 ± 8.7", "unit": "%"}]}
{"molecule": "TbAAT5-3 (Trypanosoma brucei brucei TREU927) (protein, full-length ORF (1377 bp incl. stop) in pDR197, untagged, expressed in S. cerevisiae 21.983c; nt 96 resolved as C (Asp)) MLSPTEPLGSGKAHTEVVTDEGEGYGAMSAADEKSHHKNGDTPTTDSKFMQCINAIIPHGGALSTTFNLGSATLGAGVISLAIAFQMSGVIPSILILITVTVLTIYSVGLMMQAVEMTGYNSYADLSRNLFGPGWDYFTISVSWLFTFGTCVSYVIATGYLVDSVLSGSSALEFFQGKTGNRVITSIIWFVGMFSLSLPKEINSLRYASAIAVLFVFYFVICIVVHSAKNGLKDGKLPEDVEMFKSGNRAIEGLSIFMFSYLCHMNCFSIYSEMRKPSARRMTLHTTYSMSMCCVVYIIAGFFGYTDVGNKSVETVFEIYDVKGDVMMAIAFAGMLLKICVGFSLCMQPARDCCYYIIGWDLNTLETWKNCLFCGSMALCALLLGLFIPDLNTVFGLLGSFCGGVLGFCIPALYRMYCGNWGISQVGVVNYVCTYLLLISGVIAVVFGTAASIYNVAV", "values": [{"measurement": "Km", "setting": "[3]", "value": "3.6 ± 0.4", "unit": "µM"}]}
{"molecule": "TbAAT16-1 (Trypanosoma brucei brucei TREU927) (protein) MSPRATEPIINEDEHPTLIPSLSQGNVLELPPDSDKSTAAADGEHRGCLNTVFDPIKGIVPYGGMASNVFNLESATLGAGIVMLPSGFLNSGIIIATLMLVYICFTTVYSIRILVITRDKTGFRSYEEMACGLLGRGADYFTAFLMFVFCFGTCVGYVISVGDLLSPLLNQPSTTGFLRTSMGKNVIVGVVWLVAMLPLSLPKEINSLRYASAVGVFFIVFFVICMIVHAAMNGLKDGIGSDIRLVGDGWGILNGFTLFVFAFICQVNCFEVYEEMKGPTPRRMTRDSSVAMSMVGLLYFLSGIFGYLDFGNDLEGSVLKLYKPQDDVMMAIGYVGIAIKICVGFAICIQPSRDAIYYVLGWGKTSDVDSWKNLVVSGVLATLALVLGLVLPSIEVVFNFLGSFCGGFLAFILPALYYMYAGNFSLKEVGWFNYAVTYQLLIVGVFAVVFGTALTIYDEVKK", "values": [{"measurement": "Km", "setting": "[4]", "value": "4.3 ± 0.5", "unit": "µM"}]}
